Entries after “also recorded” stand apart in the source; their conditions may differ.
What was measured:
SIRT6 [1] = biological target: T1, SIRT6 (Homo sapiens, UniProt Q8N6T7); test: SIRT6 deacetylation reaction promoted by the SIRT6 activator MDL-800, recombinant protein; assay type: biochemical; conditions: 150 µM, with SIRT6 activator MDL-800, SD always ≤10%
Procedure: (§1) Next, the selectivity of the compounds for SIRT2 against other sirtuins was also determined. The compounds were tested at the final concentration of 150 µM in the deacetylation reaction of SIRT1, SIRT3 and SIRT6, with this last one being promoted by the addition of the SIRT6 activator MDL-800 and also in the depalmitoylation reaction of SIRT6.

HaCaT cells = assay type: cell-based
Procedure: (§2) SCC13 and HaCaT cell lines were a kind gift from Prof. Alessio Nencioni (University of Genoa), and cells were maintained in Gibco™ Keratinocyte SFM 1X medium supplied with prequalified human recombinant epidermal growth factor 1–53 (EGF 1–53) and bovine pituitary extract (BPE, CAT# 17005042) (Thermo Fisher Scientific, Milano, Italy), with 50 IU/mL penicillin and 50 μg/mL streptomycin and cultured as in [36]. SCC13 and HaCaT cells were treated for 48 h with the putative SIRT2 inhibitor, and cell viability was analyzed by a sulforhodamine B assay. Briefly, 5000 cells/well were seeded in 96-well plates in triplicate and allowed to adhere overnight. The day after, the medium was replaced with fresh medium containing increasing concentrations of 5a. After 48 h, TCA was added, and samples were processed as previously described.

SIRT3 = biological target: T2, SIRT3 (Homo sapiens, UniProt Q9NTG7); test: SIRT3 deacetylation reaction, recombinant protein; assay type: biochemical; conditions: deacetylase activity, SD always ≤10%
T2 sequence (Q9NTG7 1-399): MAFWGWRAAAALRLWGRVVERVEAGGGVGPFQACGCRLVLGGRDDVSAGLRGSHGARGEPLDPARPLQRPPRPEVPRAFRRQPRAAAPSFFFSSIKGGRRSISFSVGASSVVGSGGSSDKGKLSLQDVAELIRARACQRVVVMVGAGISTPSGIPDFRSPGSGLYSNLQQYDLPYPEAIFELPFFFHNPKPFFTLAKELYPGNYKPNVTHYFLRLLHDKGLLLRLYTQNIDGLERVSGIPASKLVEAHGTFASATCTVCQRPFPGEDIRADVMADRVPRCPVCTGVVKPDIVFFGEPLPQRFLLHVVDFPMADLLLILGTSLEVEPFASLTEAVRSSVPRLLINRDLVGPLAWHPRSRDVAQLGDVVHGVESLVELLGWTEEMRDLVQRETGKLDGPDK
Procedure: as §1

SIRT6 [2] = biological target: T1, SIRT6; test: SIRT6 depalmitoylation reaction (H3K9Palm), recombinant protein; assay type: biochemical; conditions: 150 µM, SD always ≤10%
Procedure: as §1

[3] = test system: acetylation of α-tubulin in SCC13 cells; test: Western blot of α-tubulin acetylation (endogenous SIRT2 inhibition) in SCC13 cells; assay type: cell-based; conditions: 5 μM, 48 h, Western blot normalized to total α-tubulin
Procedure: To confirm that the effect of 5a on cell viability was due to its ability to inhibit the endogenous SIRT2, Western blot analyses were performed to quantify the level of acetylation of α-tubulin, a direct substrate of SIRT2 enzymatic activity.
SCC13 cells (3 × 10^5) were seeded in 60 mm Petri dishes and left to adhere overnight. The day after, the medium was replaced with a medium containing 5a at a final concentration of 5 µM or the respective amount of DMSO vehicle. After 48 h, the medium was removed, and cells were washed with PBS and lysed by scraping with 100 µL of lysis buffer (25 mM Tris-HCl, pH 7.8; 2 mM DTT; 2 mM EDTA, 10% glycerol; 1% Triton® X-100). The lysate was clarified by centrifugation, and the protein concentration was measured using the Bradford assay. Twenty µg of proteins were loaded on a 10% polyacrylamide gel and then transferred to a nitrocellulose membrane. The membrane was saturated with 5% skim milk powder solution in TBS-Tween 0.05%. To determine the acetylation of alpha-tubulin, membranes were incubated with an anti-acetyl-alpha-tubulin antibody (#5335, Cell Signaling Technology, Danvers, MA, USA), whose signal was normalized on the total amount of alpha-tubulin (#2125, Cell Signaling Technology).

SIRT1 = biological target: T3, SIRT1 (Homo sapiens, UniProt Q96EB6); test: SIRT1 deacetylation reaction, recombinant protein; assay type: biochemical; conditions: deacetylase activity, SD always ≤10%
T3 sequence (Q96EB6 1-747): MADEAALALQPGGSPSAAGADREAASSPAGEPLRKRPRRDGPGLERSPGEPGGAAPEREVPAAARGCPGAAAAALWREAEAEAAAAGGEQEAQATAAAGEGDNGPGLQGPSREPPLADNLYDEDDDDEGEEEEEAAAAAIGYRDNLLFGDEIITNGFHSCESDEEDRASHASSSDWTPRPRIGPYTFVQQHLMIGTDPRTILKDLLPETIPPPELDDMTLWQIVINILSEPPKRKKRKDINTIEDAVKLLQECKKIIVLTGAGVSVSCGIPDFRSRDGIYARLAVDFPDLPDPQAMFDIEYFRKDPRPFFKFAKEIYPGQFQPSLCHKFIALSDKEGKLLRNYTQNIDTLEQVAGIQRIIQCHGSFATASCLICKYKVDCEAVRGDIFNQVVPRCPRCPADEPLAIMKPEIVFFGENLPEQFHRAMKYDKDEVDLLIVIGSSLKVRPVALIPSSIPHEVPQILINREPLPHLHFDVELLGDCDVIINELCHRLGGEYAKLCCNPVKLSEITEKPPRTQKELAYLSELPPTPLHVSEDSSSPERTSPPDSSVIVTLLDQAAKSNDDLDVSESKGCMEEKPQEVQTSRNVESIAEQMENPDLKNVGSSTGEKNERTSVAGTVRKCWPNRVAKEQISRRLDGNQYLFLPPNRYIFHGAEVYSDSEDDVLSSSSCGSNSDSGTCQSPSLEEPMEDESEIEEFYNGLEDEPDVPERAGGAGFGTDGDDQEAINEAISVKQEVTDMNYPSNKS
Procedure: as §1

SCC13 cells = test: Cell viability by sulforhodamine B assay, SCC13; assay type: cell-based; conditions: 48 h, increasing concentrations
Procedure: as §2

SIRT2 [4] = biological target: T4, SIRT2 (Homo sapiens, UniProt Q8IXJ6); test: SIRT2 deacetylase activity, recombinant SIRT2 with acetylated peptide H3K9Ac and NAD+
T4 sequence (Q8IXJ6 1-389): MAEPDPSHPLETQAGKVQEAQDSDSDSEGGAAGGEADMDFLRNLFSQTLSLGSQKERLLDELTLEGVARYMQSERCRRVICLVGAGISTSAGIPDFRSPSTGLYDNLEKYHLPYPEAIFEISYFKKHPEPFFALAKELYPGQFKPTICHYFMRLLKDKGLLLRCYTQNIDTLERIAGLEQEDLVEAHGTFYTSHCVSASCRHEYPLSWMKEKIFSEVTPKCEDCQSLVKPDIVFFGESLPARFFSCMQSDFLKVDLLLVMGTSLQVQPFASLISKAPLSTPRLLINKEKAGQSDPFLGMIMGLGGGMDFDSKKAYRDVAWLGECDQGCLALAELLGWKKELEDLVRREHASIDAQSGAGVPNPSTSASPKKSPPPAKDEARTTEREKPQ
Procedure: The effect of urea derivatives on SIRT2 deacetylase activity was evaluated upon incubation of recombinant SIRT2 with an acetylated peptide (H3K9Ac, a peptide acetylated on Lys 9) and the co-substrate NAD^+.

SIRT2 [5] = biological target: T4, SIRT2; set-up: method as in PMID 37765125; conditions: at 150 μM; cited from earlier work

T1 sequence (Q8N6T7 whole entry, species assumed): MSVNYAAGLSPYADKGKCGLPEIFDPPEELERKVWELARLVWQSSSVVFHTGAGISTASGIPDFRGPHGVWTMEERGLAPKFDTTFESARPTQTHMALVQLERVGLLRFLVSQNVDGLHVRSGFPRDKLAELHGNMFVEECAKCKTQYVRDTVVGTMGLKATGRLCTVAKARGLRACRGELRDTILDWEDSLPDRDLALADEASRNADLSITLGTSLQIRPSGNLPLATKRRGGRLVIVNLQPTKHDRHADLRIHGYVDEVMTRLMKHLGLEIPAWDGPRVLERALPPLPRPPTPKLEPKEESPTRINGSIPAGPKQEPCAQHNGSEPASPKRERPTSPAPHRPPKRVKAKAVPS

Row | Compound | % Inhibition SIRT6 (Deacetylase) (SIRT6 [1]) | toxicity (cell viability, SRB assay) (HaCaT cells) | inhibition at 150 µM (SIRT3) [%] | % Inhibition SIRT6 (Depalmiotoylase) (SIRT6 [2]) | level of α-tubulin acetylation vs control cells [3] | inhibition at 150 µM (SIRT1) [%] | cell death / toxicity (cell viability, SRB assay) (SCC13 cells) | IC50 (SIRT2 [4]) [µM] | inhibition at 150 µM (SIRT2 [4]; read-out: % Inhibition SIRT2 (at 150 μM)) [%] | SIRT2 inhibition percentage (SIRT2 [5]) [%]
1 | CCOC(=O)c1sc(NC(=O)Nc2cccc(OC)c2)nc1-c1ccc(Br)cc1 [Compound 5a, Ethyl4-(4-bromophenyl)-2-(3-(3-methoxyphenyl)ureido)thiazole-5 carboxylate] | ni | not on the normal keratinocyte cell line HaCaT | 36 | ni | increases α-tubulin acetylation; also recorded: increased levels of alpha-tubulin acetylation | 100 | concentration-dependent toxicity; also recorded: concentration-dependent cell death | 9 ± 2 | 98 ± 5 | –
2 | CCc1ccc(Nc2nc(-c3ccc(Cl)cc3)cs2)cc1SC [Compound T1] | – | – | – | – | – | – | – | – | – | 100

— paper PMC11508362, “Discovery of Novel Thiazole-Based SIRT2 Inhibitors as Anticancer Agents: Molecular Modeling, Chemical Synthesis and Biological Assays” (International Journal of Molecular Sciences, 2024)
